Reference: PMC8037182, “Solvothermal Synthesis of Multiple Dihydropyrimidinones at a Time as Inhibitors of Eg5” (Molecules, 2021)

Columns and labels:
T24 cell line = experiment: Cytotoxicity MTS assay, T24 cell line; format: cell-based; conditions: for OD490 Mean / OD490 Well 1 / OD490 Well 2 / OD490 Well 3: T24 cell line, first assay
Description: (§1) The positive compounds (IC50 < 100 μM) obtained from the primary Eg5 motor protein ATPase assay were tested for antiproliferative activity in vitro against Caco-2 cell line, Hela cell line, L929 cell line and T24 cell line by performing MTS assay. Cells were introduced into 96-well plates at a density of 1000 cells per well. After 24 h incubation, the cells were exposed with compounds at final concentrations ranging from 0.5 to 100 µM for 24 h. DMSO was used at a final concentration of 0.025% as blank control, monastrol was used as the positive control. Then 20 µL (CellTiter 96® AQueous One Solution Promega, Madison, WI, USA) reagent was added in each well. After 2 h at 37 °C in a 80% humidified, 5% CO2 atmosphere, the absorbance at 490 nm was recorded using a microplate reader (BIO-RAD iMark^TM). The results were obtained in three independent duplicate experiments. The primary data were shown in Supplementary Materials Tables S4–S7. The IC50 values for these compounds were calculated from a non-linear regression graph plotted between the percentage of cell viability and concentration with SPSS17.0 software.

L929 cell line = experiment: Cytotoxicity MTS assay, L929 cell line; format: cell-based; conditions: for OD490 values, Mean / OD490 values, Well 1 / OD490 values, Well 2 / OD490 values, Well 3: L929 cell line
Description: as §1

For `COC(=O)c1[nH]c(C2NC(=S)NC(C)=C2C(=O)c2ccccc2)c(C(=O)OC)c1C` (centres unmarked) [D14], the IC50 (T24 cell line; MTS assay, 24 h exposure) was over 150 µM, the “OD490 Mean” value (T24 cell line; 0.5μM) was 1.1342 and the “OD490 Well 1” value (T24 cell line; 0.5μM) was 1.0996. The “OD490 Well 2” value (T24 cell line; 0.5μM) was 1.1541, the “OD490 Well 3” value (T24 cell line; 0.5μM) was 1.1489 and the “OD490 Mean” value (T24 cell line; 1μM) was 1.3301. The “OD490 Well 1” value (T24 cell line; 1μM) was 1.2266, the “OD490 Well 2” value (T24 cell line; 1μM) was 1.4478 and the “OD490 Well 3” value (T24 cell line; 1μM) was 1.3160. The “OD490 Mean” value (T24 cell line; 10μM) was 1.2661, the “OD490 Well 1” value (T24 cell line; 10μM) was 1.2502 and the “OD490 Well 2” value (T24 cell line; 10μM) was 1.2630. For the same compound, the “OD490 Well 3” value (T24 cell line; 10μM) was 1.2850, the “OD490 Mean” value (T24 cell line; 25μM) was 1.2456 and the “OD490 Well 1” value (T24 cell line; 25μM) was 1.2555. The “OD490 Well 2” value (T24 cell line; 25μM) was 1.2167, the “OD490 Well 3” value (T24 cell line; 25μM) was 1.2646 and the “OD490 Mean” value (T24 cell line; 50μM) was 1.2309. The “OD490 Well 1” value (T24 cell line; 50μM) was 1.2932, the “OD490 Well 2” value (T24 cell line; 50μM) was 1.1700 and the “OD490 Well 3” value (T24 cell line; 50μM) was 1.2295. The “OD490 Mean” value (T24 cell line; 100μM) was 1.4227, the “OD490 Well 1” value (T24 cell line; 100μM) was 1.3732 and the “OD490 Well 2” value (T24 cell line; 100μM) was 1.4320. The “OD490 Well 3” value (T24 cell line; 100μM) was 1.4629, the “OD490 values, Mean” value (L929 cell line; 1μM, first assay) was 1.2798 and the “OD490 values, Well 1” value (L929 cell line; 1μM, first assay) was 1.2932. For the same compound, the “OD490 values, Well 2” value (L929 cell line; 1μM, first assay) was 1.2928, the “OD490 values, Well 3” value (L929 cell line; 1μM, first assay) was 1.2533 and the “OD490 values, Mean” value (L929 cell line; 1μM, second assay) was 1.4907. For the same compound, the “OD490 values, Well 1” value (L929 cell line; 1μM, second assay) was 1.4325, the “OD490 values, Well 2” value (L929 cell line; 1μM, second assay) was 1.3987 and the “OD490 values, Well 3” value (L929 cell line; 1μM, second assay) was 1.6410. For the same compound, the “OD490 values, Mean” value (L929 cell line; 1μM, third assay) was 1.6023, the “OD490 values, Well 1” value (L929 cell line; 1μM, third assay) was 1.5874 and the “OD490 values, Well 2” value (L929 cell line; 1μM, third assay) was 1.6622. For the same compound, the “OD490 values, Well 3” value (L929 cell line; 1μM, third assay) was 1.5574, the “OD490 values, Mean” value (L929 cell line; 1.5μM, first assay) was 1.2729 and the “OD490 values, Well 1” value (L929 cell line; 1.5μM, first assay) was 1.2563. For the same compound, the “OD490 values, Well 2” value (L929 cell line; 1.5μM, first assay) was 1.3177, the “OD490 values, Well 3” value (L929 cell line; 1.5μM, first assay) was 1.2448 and the “OD490 values, Mean” value (L929 cell line; 1.5μM, second assay) was 1.4657. For the same compound, the “OD490 values, Well 1” value (L929 cell line; 1.5μM, second assay) was 1.4258, the “OD490 values, Well 2” value (L929 cell line; 1.5μM, second assay) was 1.4302 and the “OD490 values, Well 3” value (L929 cell line; 1.5μM, second assay) was 1.5412. For the same compound, the “OD490 values, Mean” value (L929 cell line; 1.5μM, third assay) was 1.5678, the “OD490 values, Well 1” value (L929 cell line; 1.5μM, third assay) was 1.5254 and the “OD490 values, Well 2” value (L929 cell line; 1.5μM, third assay) was 1.5988. The “OD490 values, Well 3” value (L929 cell line; 1.5μM, third assay) was 1.5793, the “OD490 values, Mean” value (L929 cell line; 10μM, first assay) was 1.2551 and the “OD490 values, Well 1” value (L929 cell line; 10μM, first assay) was 1.2039. For the same compound, the “OD490 values, Well 2” value (L929 cell line; 10μM, first assay) was 1.3650, the “OD490 values, Well 3” value (L929 cell line; 10μM, first assay) was 1.1963 and the “OD490 values, Mean” value (L929 cell line; 10μM, second assay) was 1.4237. The “OD490 values, Well 1” value (L929 cell line; 10μM, second assay) was 1.3365, the “OD490 values, Well 2” value (L929 cell line; 10μM, second assay) was 1.5325 and the “OD490 values, Well 3” value (L929 cell line; 10μM, second assay) was 1.4022. The “OD490 values, Mean” value (L929 cell line; 10μM, third assay) was 1.5660, the “OD490 values, Well 1” value (L929 cell line; 10μM, third assay) was 1.5254 and the “OD490 values, Well 2” value (L929 cell line; 10μM, third assay) was 1.6200. For the same compound, the “OD490 values, Well 3” value (L929 cell line; 10μM, third assay) was 1.5525, the “OD490 values, Mean” value (L929 cell line; 25μM, first assay) was 1.1670 and the “OD490 values, Well 1” value (L929 cell line; 25μM, first assay) was 1.1764. The “OD490 values, Well 2” value (L929 cell line; 25μM, first assay) was 1.2795, the “OD490 values, Well 3” value (L929 cell line; 25μM, first assay) was 1.0451 and the “OD490 values, Mean” value (L929 cell line; 25μM, second assay) was 1.2993. The “OD490 values, Well 1” value (L929 cell line; 25μM, second assay) was 1.3065, the “OD490 values, Well 2” value (L929 cell line; 25μM, second assay) was 1.2547 and the “OD490 values, Well 3” value (L929 cell line; 25μM, second assay) was 1.3366. The “OD490 values, Mean” value (L929 cell line; 25μM, third assay) was 1.5294, the “OD490 values, Well 1” value (L929 cell line; 25μM, third assay) was 1.4424 and the “OD490 values, Well 2” value (L929 cell line; 25μM, third assay) was 1.5235. For the same compound, the “OD490 values, Well 3” value (L929 cell line; 25μM, third assay) was 1.6222, the “OD490 values, Mean” value (L929 cell line; 50μM, first assay) was 1.0826 and the “OD490 values, Well 1” value (L929 cell line; 50μM, first assay) was 0.8914. For the same compound, the “OD490 values, Well 2” value (L929 cell line; 50μM, first assay) was 1.1616, the “OD490 values, Well 3” value (L929 cell line; 50μM, first assay) was 1.1948 and the “OD490 values, Mean” value (L929 cell line; 50μM, second assay) was 1.1536. The “OD490 values, Well 1” value (L929 cell line; 50μM, second assay) was 1.1241, the “OD490 values, Well 2” value (L929 cell line; 50μM, second assay) was 1.2101 and the “OD490 values, Well 3” value (L929 cell line; 50μM, second assay) was 1.1265. The “OD490 values, Mean” value (L929 cell line; 50μM, third assay) was 1.3855, the “OD490 values, Well 1” value (L929 cell line; 50μM, third assay) was 1.3665 and the “OD490 values, Well 2” value (L929 cell line; 50μM, third assay) was 1.3874. The “OD490 values, Well 3” value (L929 cell line; 50μM, third assay) was 1.4025, the “OD490 values, Mean” value (L929 cell line; 100μM, first assay) was 1.0433 and the “OD490 values, Well 1” value (L929 cell line; 100μM, first assay) was 0.7506. The “OD490 values, Well 2” value (L929 cell line; 100μM, first assay) was 1.0796, the “OD490 values, Well 3” value (L929 cell line; 100μM, first assay) was 1.2998 and the “OD490 values, Mean” value (L929 cell line; 100μM, second assay) was 1.1143. The “OD490 values, Well 1” value (L929 cell line; 100μM, second assay) was 1.1121, the “OD490 values, Well 2” value (L929 cell line; 100μM, second assay) was 1.1285 and the “OD490 values, Well 3” value (L929 cell line; 100μM, second assay) was 1.1022. For the same compound, the “OD490 values, Mean” value (L929 cell line; 100μM, third assay) was 1.3039, the “OD490 values, Well 1” value (L929 cell line; 100μM, third assay) was 1.3251 and the “OD490 values, Well 2” value (L929 cell line; 100μM, third assay) was 1.3325. The “OD490 values, Well 3” value (L929 cell line; 100μM, third assay) was 1.2542 and the IC50 (L929 cell line; MTS assay, 24 h exposure, ordinary fibroblast, not cancer cells) was 137 µM.
